From PubChem BioAssay AID2060900 (Molecular Pharmacology Branch, DTP, NCI, 2025)

Tested on: 521955-158-R2-J5-PDC complex spheroids, viability
Experiment: Anticancer human tumor 521955-158-R2-J5-PDC patient-derived pancreatic carcinoma cell line growth inhibition [RAS]
Conditions: second compound 0.01 µM; first compound 0.316 µM; active compounds read low
Summary of the method: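 Multi-cell-type spheroids: tumor cells plus HUVEC endothelial cells and mesenchymal stem cells. RAS-pathway inhibitors were combined with targeted agents, each dosed in half-log steps down from clinical Cmax, or from 10 microM when Cmax was unknown.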
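Note: spheroids also contain HUVEC endothelial cells and mesenchymal stem cells as stroma; compound exposure lasted seven days before the viability read.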

`C[C@@H](NC(=O)c1ncnc(N)c1Cl)c1ncc(C(=O)Nc2cc(C(F)(F)F)c(Cl)cn2)s1` + C=CC(=O)N1CCN(c2nc(OCC3CCCN3C)nc3c(F)c(-c4nc(N)cc(C)c4C(F)(F)F)c(Cl)cc23)C(C)C1 was tested. Which viability, T/C did it give?
The viability, T/C was 84.8%.

`O=C(c1ccc(F)c(F)c1Nc1ccc(I)cc1F)N1CC(O)([C@@H]2CCCCN2)C1` + C=CC(=O)N1CCN(c2nc(OCC3CCCN3C)nc3c(F)c(-c4nc(N)cc(C)c4C(F)(F)F)c(Cl)cc23)C(C)C1 was tested. Which viability, T/C did it give?
The viability, T/C was 31.4%.

Same assay, conditions: second compound 0.01 µM; first compound 1 µM; active compounds read low

With `CC(C)NCC(C(=O)N1CCN(c2ncnc3c2C(C)CC3O)CC1)c1ccc(Cl)cc1` (configuration not stated) + C=CC(=O)N1CCN(c2nc(OCC3CCCN3C)nc3c(F)c(-c4nc(N)cc(C)c4C(F)(F)F)c(Cl)cc23)C(C)C1 as the compound, how does the viability, T/C read?
Its viability, T/C is 92.9%.

Which viability, T/C does the source give for `CC(Nc1ccc2c(c1)OCCn1cc(N3C(=O)OCC3C(F)F)nc1-2)C(N)=O` (configuration not stated) + C=CC(=O)N1CCN(c2nc(OCC3CCCN3C)nc3c(F)c(-c4nc(N)cc(C)c4C(F)(F)F)c(Cl)cc23)C(C)C1 here?
The viability, T/C was 52%.

`C[C@@H](NC(=O)c1ncnc(N)c1Cl)c1ncc(C(=O)Nc2cc(C(F)(F)F)c(Cl)cn2)s1` + C=CC(=O)N1CCN(c2nc(OCC3CCCN3C)nc3c(F)c(-c4nc(N)cc(C)c4C(F)(F)F)c(Cl)cc23)C(C)C1 was tested. Which viability, T/C did it give?
Its viability, T/C is 130%.

`O=C(c1ccc(F)c(F)c1Nc1ccc(I)cc1F)N1CC(O)([C@@H]2CCCCN2)C1` + C=CC(=O)N1CCN(c2nc(OCC3CCCN3C)nc3c(F)c(-c4nc(N)cc(C)c4C(F)(F)F)c(Cl)cc23)C(C)C1 was tested. Which viability, T/C did it give?
The viability, T/C was 19.6%.

Same assay, conditions: second compound 0.01 µM; first compound 3.16 µM; active compounds read low

Which viability, T/C does the source give for `CC(C)NCC(C(=O)N1CCN(c2ncnc3c2C(C)CC3O)CC1)c1ccc(Cl)cc1` (configuration not stated) + C=CC(=O)N1CCN(c2nc(OCC3CCCN3C)nc3c(F)c(-c4nc(N)cc(C)c4C(F)(F)F)c(Cl)cc23)C(C)C1 here?
Its viability, T/C is 69.1%.

How did the viability, T/C turn out when `CC(Nc1ccc2c(c1)OCCn1cc(N3C(=O)OCC3C(F)F)nc1-2)C(N)=O` (configuration not stated) + C=CC(=O)N1CCN(c2nc(OCC3CCCN3C)nc3c(F)c(-c4nc(N)cc(C)c4C(F)(F)F)c(Cl)cc23)C(C)C1 was run?
The viability, T/C was 35.5%.

Which viability, T/C does the source give for `C[C@@H](NC(=O)c1ncnc(N)c1Cl)c1ncc(C(=O)Nc2cc(C(F)(F)F)c(Cl)cn2)s1` + C=CC(=O)N1CCN(c2nc(OCC3CCCN3C)nc3c(F)c(-c4nc(N)cc(C)c4C(F)(F)F)c(Cl)cc23)C(C)C1 here?
Its viability, T/C is 82.9%.

Same assay, conditions: second compound 0.01 µM; first compound 10 µM; active compounds read low

Which viability, T/C does the source give for `CC(C)NCC(C(=O)N1CCN(c2ncnc3c2C(C)CC3O)CC1)c1ccc(Cl)cc1` (configuration not stated) + C=CC(=O)N1CCN(c2nc(OCC3CCCN3C)nc3c(F)c(-c4nc(N)cc(C)c4C(F)(F)F)c(Cl)cc23)C(C)C1 here?
Its viability, T/C is 55%.

For `CC(Nc1ccc2c(c1)OCCn1cc(N3C(=O)OCC3C(F)F)nc1-2)C(N)=O` (configuration not stated) + C=CC(=O)N1CCN(c2nc(OCC3CCCN3C)nc3c(F)c(-c4nc(N)cc(C)c4C(F)(F)F)c(Cl)cc23)C(C)C1, which viability, T/C is on record?
Its viability, T/C is 22.9%.

For `C[C@@H](NC(=O)c1ncnc(N)c1Cl)c1ncc(C(=O)Nc2cc(C(F)(F)F)c(Cl)cn2)s1` + C=CC(=O)N1CCN(c2nc(OCC3CCCN3C)nc3c(F)c(-c4nc(N)cc(C)c4C(F)(F)F)c(Cl)cc23)C(C)C1, which viability, T/C is on record?
The viability, T/C was 60.2%.

Same assay, conditions: second compound 0.0316 µM; first compound 0.000316 µM; active compounds read low

For `CC(C)n1nc(-c2ccc3oc(N)nc3c2)c2c(N)ncnc21` + C=CC(=O)N1CCN(c2nc(OCC3CCCN3C)nc3c(F)c(-c4nc(N)cc(C)c4C(F)(F)F)c(Cl)cc23)C(C)C1, which viability, T/C is on record?
Its viability, T/C is 76%.

Same assay, conditions: second compound 0.0316 µM; first compound 0.001 µM; active compounds read low

How did the viability, T/C turn out when `CC(C)n1nc(-c2ccc3oc(N)nc3c2)c2c(N)ncnc21` + C=CC(=O)N1CCN(c2nc(OCC3CCCN3C)nc3c(F)c(-c4nc(N)cc(C)c4C(F)(F)F)c(Cl)cc23)C(C)C1 was run?
The viability, T/C was 134%.

Same assay, conditions: second compound 0.0316 µM; first compound 0.00316 µM; active compounds read low

With `CC(C)n1nc(-c2ccc3oc(N)nc3c2)c2c(N)ncnc21` + C=CC(=O)N1CCN(c2nc(OCC3CCCN3C)nc3c(F)c(-c4nc(N)cc(C)c4C(F)(F)F)c(Cl)cc23)C(C)C1 as the compound, how does the viability, T/C read?
Its viability, T/C is 87.1%.

For `O=C(c1ccc(F)c(F)c1Nc1ccc(I)cc1F)N1CC(O)([C@@H]2CCCCN2)C1` + C=CC(=O)N1CCN(c2nc(OCC3CCCN3C)nc3c(F)c(-c4nc(N)cc(C)c4C(F)(F)F)c(Cl)cc23)C(C)C1, which viability, T/C is on record?
The viability, T/C was 65.2%.

Same assay, conditions: second compound 0.0316 µM; first compound 0.01 µM; active compounds read low

`CC(C)n1nc(-c2ccc3oc(N)nc3c2)c2c(N)ncnc21` + C=CC(=O)N1CCN(c2nc(OCC3CCCN3C)nc3c(F)c(-c4nc(N)cc(C)c4C(F)(F)F)c(Cl)cc23)C(C)C1 was tested. Which viability, T/C did it give?
Its viability, T/C is 93.7%.

For `O=C(c1ccc(F)c(F)c1Nc1ccc(I)cc1F)N1CC(O)([C@@H]2CCCCN2)C1` + C=CC(=O)N1CCN(c2nc(OCC3CCCN3C)nc3c(F)c(-c4nc(N)cc(C)c4C(F)(F)F)c(Cl)cc23)C(C)C1, which viability, T/C is on record?
The viability, T/C was 62.1%.

Same assay, conditions: second compound 0.0316 µM; first compound 0.0316 µM; active compounds read low

With `CC(C)NCC(C(=O)N1CCN(c2ncnc3c2C(C)CC3O)CC1)c1ccc(Cl)cc1` (configuration not stated) + C=CC(=O)N1CCN(c2nc(OCC3CCCN3C)nc3c(F)c(-c4nc(N)cc(C)c4C(F)(F)F)c(Cl)cc23)C(C)C1 as the compound, how does the viability, T/C read?
Its viability, T/C is 84.1%.

`CC(C)n1nc(-c2ccc3oc(N)nc3c2)c2c(N)ncnc21` + C=CC(=O)N1CCN(c2nc(OCC3CCCN3C)nc3c(F)c(-c4nc(N)cc(C)c4C(F)(F)F)c(Cl)cc23)C(C)C1 was tested. Which viability, T/C did it give?
The viability, T/C was 40.5%.

Which viability, T/C does the source give for `CC(Nc1ccc2c(c1)OCCn1cc(N3C(=O)OCC3C(F)F)nc1-2)C(N)=O` (configuration not stated) + C=CC(=O)N1CCN(c2nc(OCC3CCCN3C)nc3c(F)c(-c4nc(N)cc(C)c4C(F)(F)F)c(Cl)cc23)C(C)C1 here?
The viability, T/C was 56.9%.

With `C[C@@H](NC(=O)c1ncnc(N)c1Cl)c1ncc(C(=O)Nc2cc(C(F)(F)F)c(Cl)cn2)s1` + C=CC(=O)N1CCN(c2nc(OCC3CCCN3C)nc3c(F)c(-c4nc(N)cc(C)c4C(F)(F)F)c(Cl)cc23)C(C)C1 as the compound, how does the viability, T/C read?
The viability, T/C was 101%.

Which viability, T/C does the source give for `O=C(c1ccc(F)c(F)c1Nc1ccc(I)cc1F)N1CC(O)([C@@H]2CCCCN2)C1` + C=CC(=O)N1CCN(c2nc(OCC3CCCN3C)nc3c(F)c(-c4nc(N)cc(C)c4C(F)(F)F)c(Cl)cc23)C(C)C1 here?
The viability, T/C was 44.4%.

Same assay, conditions: second compound 0.0316 µM; first compound 0.1 µM; active compounds read low

`CC(C)NCC(C(=O)N1CCN(c2ncnc3c2C(C)CC3O)CC1)c1ccc(Cl)cc1` (configuration not stated) + C=CC(=O)N1CCN(c2nc(OCC3CCCN3C)nc3c(F)c(-c4nc(N)cc(C)c4C(F)(F)F)c(Cl)cc23)C(C)C1 was tested. Which viability, T/C did it give?
The viability, T/C was 101%.

Which viability, T/C does the source give for `CC(C)n1nc(-c2ccc3oc(N)nc3c2)c2c(N)ncnc21` + C=CC(=O)N1CCN(c2nc(OCC3CCCN3C)nc3c(F)c(-c4nc(N)cc(C)c4C(F)(F)F)c(Cl)cc23)C(C)C1 here?
Its viability, T/C is 29.7%.

For `CC(Nc1ccc2c(c1)OCCn1cc(N3C(=O)OCC3C(F)F)nc1-2)C(N)=O` (configuration not stated) + C=CC(=O)N1CCN(c2nc(OCC3CCCN3C)nc3c(F)c(-c4nc(N)cc(C)c4C(F)(F)F)c(Cl)cc23)C(C)C1, which viability, T/C is on record?
Its viability, T/C is 71.3%.

Which viability, T/C does the source give for `C[C@@H](NC(=O)c1ncnc(N)c1Cl)c1ncc(C(=O)Nc2cc(C(F)(F)F)c(Cl)cn2)s1` + C=CC(=O)N1CCN(c2nc(OCC3CCCN3C)nc3c(F)c(-c4nc(N)cc(C)c4C(F)(F)F)c(Cl)cc23)C(C)C1 here?
Its viability, T/C is 138%.
